SMILES strings stand for the structures. Where a name gives a salt, the structure may show the parent alone. Read-outs that look alike come from different tables or passages of the source.

The source of these data is US8304419B2, “Chemical compounds” (priority 2007, dated 2012).

The test concerns HIV wild type (WTRVA). The experiment in a line: HeLa cell assay, wild type virus (WTRVA). It counts as cell-based, HIV-1. Details: scale not given here. Conditions: Human immunodeficiency virus 1, HeLa.
Where [1] appears, read: HeLa-CD4-LTR-β-gal cells, wild type virus, read-out: WTRVA activity level.
[2] abbreviates: HeLa cell assay, read-out: IC50 against WTRVA.

Regarding `CC(=O)Nc1ccc2cc(C(=O)NCc3ccc(Cl)c(Oc4cc(Cl)cc(C#N)c4)c3F)[nH]c2c1` [Example 122, 6-(acetylamino)-N-({4-chloro-3-[(3-chloro-5-cyanophenyl)oxy]-2-fluorophenyl}methyl)-1H-indole-2-carboxamide], under setting [1], the IC50 is < 10 nM.

On to `N#Cc1cc(Cl)cc(Oc2c(Cl)ccc(CNC(=O)c3[nH]c(N)nc3Br)c2F)c1` [Example 235, 2-amino-4-bromo-N-({4-chloro-3-[(3-chloro-5-cyanophenyl)oxy]-2-fluorophenyl}methyl)-1H-imidazole-5-carboxamide trifluoroacetate], for which the IC50 under setting [2] was < 10 nM.

As for `Cc1cc(C#N)cc(Oc2c(Cl)ccc(CNC(=O)c3[nH]c(C)nc3Br)c2F)c1` [Example 146, 4-bromo-N-({4-chloro-3-[(3-cyano-5-methylphenyl)oxy]-2-fluorophenyl}methyl)-2-methyl-1H-imidazole-5-carboxamide], the IC50 under setting [2] was < 10 nM.

Consider `C=CCc1cc(C#N)cc(Oc2c(Cl)ccc(CNC(=O)c3[nH]c(C)nc3Cl)c2F)c1` [Example 248, 4-chloro-N-[(4-chloro-3-{[3-cyano-5-(2-propen-1-yl)phenyl]oxy}-2-fluorophenyl)methyl]-2-methyl-1H-imidazole-5-carboxamide trifluoroacetate], for which the IC50 under setting [2] was < 10 nM.

For `COc1n[n+]([O-])cc2cc(C(=O)NCc3ccc(Cl)c(Oc4cc(Cl)cc(C#N)c4)c3F)[nH]c12` [Example 82, N-({4-chloro-3-[(3-chloro-5-cyanophenyl)oxy]-2-fluorophenyl}methyl)-7-(methyloxy)-1H-pyrrolo[2,3-d]pyridazine-2-carboxamide 5-oxide trifluoroacetate], under setting [1], the IC50 lay within 10 to 1000 nM.

For `N#Cc1cc(Cl)cc(Oc2c(Cl)ccc(CNC(=O)c3[nH]cnc3Br)c2F)c1` [Example 133, 4-bromo-N-({4-chloro-3-[(3-chloro-5-cyanophenyl)oxy]-2-fluorophenyl}methyl)-1H-imidazole-5-carboxamide trifluoroacetate], the IC50 is < 10 nM under setting [2] and < 10 nM under setting [1].

As to `N#Cc1cc(Cl)cc(Oc2c(Cl)ccc(CNC(=O)c3cc4cccc([N+](=O)[O-])c4[nH]3)c2F)c1` [Example 37, N-({4-chloro-3-[(3-chloro-5-cyanophenyl)oxy]-2-fluorophenyl}methyl)-7-nitro-1H-indole-2-carboxamide], the IC50 under setting [1] was 10 to 1000 nM.

In the case of `CC(C)(C)OC(=O)N1CCO[C@@H](COc2ccc3[nH]c(C(=O)NCc4ccc(Cl)c(Oc5cc(Cl)cc(C#N)c5)c4F)cc3c2)C1` [Example 23, 1,1-dimethylethyl (2R)-2-{[(2-{[({4-chloro-3-[(3-chloro-5-cyanophenyl)oxy]-2-fluorophenyl}methyl)amino]carbonyl}-1H-indol-5-yl)oxy]methyl}-4-morpholinecarboxylate], the IC50 under setting [1] is 10 to 1000 nM.

For `COC(=O)c1ccc(C(=O)NCc2ccc(Cl)c(Oc3cc(Cl)cc(C#N)c3)c2)cc1` [Example 11, Methyl 4-{[({4-chloro-3-[(3-chloro-5-cyanophenyl)oxy]phenyl}methyl)amino]carbonyl}benzoate], the IC50 under setting [1] is > 1000 nM.

For the molecule `N#Cc1cc(Cl)cc(Oc2c(Cl)ccc(CNC(=O)c3n[nH]c([N+](=O)[O-])c3Br)c2F)c1` [Example 69, 4-bromo-N-({4-chloro-3-[(3-chloro-5-cyanophenyl)oxy]-2-fluorophenyl}methyl)-5-nitro-1H-pyrazole-3-carboxamide trifluoroacetate], the IC50 under setting [1] fell in the range of 10 to 1000 nM.

On to `N#Cc1cc(CN2CCOCC2)cc(Oc2c(Cl)ccc(CNC(=O)c3[nH]cnc3Cl)c2F)c1` [Example 383, 4-chloro-N-[(4-chloro-3-{[3-cyano-5-(4-morpholinylmethyl)phenyl]oxy}-2-fluorophenyl)methyl]-1H-imidazole-5-carboxamide], for which, under setting [2], the IC50 is < 10 nM.

With `COc1ccc2cc(C(=O)NCc3ccc(Cl)c(Oc4cc(Cl)cc(C#N)c4)c3)[nH]c2c1` [Example 7, N-({4-chloro-3-[(3-chloro-5-cyanophenyl)oxy]phenyl}methyl)-6-(methyloxy)-1H-indole-2-carboxamide], under setting [1], the IC50 is 10 to 1000 nM.

On to `N#Cc1cc(Cl)cc(Oc2c(Cl)ccc(CNC(=O)c3[nH]c4ccccc4c3Cl)c2F)c1` [Example 75, 3-chloro-N-({4-chloro-3-[(3-chloro-5-cyanophenyl)oxy]-2-fluorophenyl}methyl)-1H-indole-2-carboxamide trifluoroacetate], for which the IC50 under setting [1] is < 10 nM.

On to `C=CCc1cc(C#N)cc(Oc2c(Cl)ccc(Cn3cnc4nc[nH]c4c3=O)c2F)c1` [Example 373, 3-({6-chloro-2-fluoro-3-[(6-oxo-6,7-dihydro-1H-purin-1-yl)methyl]phenyl}oxy)-5-(2-propen-1-yl)benzonitrile], for which, under setting [2], the IC50 was < 10 nM.

Regarding `N#Cc1cc(Cl)cc(Oc2c(Cl)ccc(CNC(=O)c3[nH]c(C4CC4)nc3Cl)c2F)c1` [Example 136, 4-chloro-N-({4-chloro-3-[(3-chloro-5-cyanophenyl)oxy]-2-fluorophenyl}methyl)-2-cyclopropyl-1H-imidazole-5-carboxamide trifluoroacetate], under setting [1], the IC50 was < 10 nM.

For the molecule `N#Cc1cc(Cl)cc(Oc2c(Cl)ccc(CNC(=O)c3cc4ccc(OCCO)cc4[nH]3)c2F)c1` [Example 142, N-({4-chloro-3-[(3-chloro-5-cyanophenyl)oxy]-2-fluorophenyl}methyl)-6-[(2-hydroxyethyl)oxy]-1H-indole-2-carboxamide], the IC50 under setting [1] was < 10 nM.

For the molecule `Cc1c(C(=O)NCc2ccc(Cl)c(Oc3cc(Cl)cc(C#N)c3)c2F)oc2ccccc12` [Example 48, N-({4-chloro-3-[(3-chloro-5-cyanophenyl)oxy]-2-fluorophenyl}methyl)-3-methyl-1-benzofuran-2-carboxamide trifluoroacetate], under setting [1], the IC50 fell in the range of 10 to 1000 nM.

Regarding `COc1ccc2[nH]c(C(=O)NCc3ccc(Cl)c(Oc4cc(Cl)cc(C#N)c4)c3F)cc2c1` [Example 20, N-({4-chloro-3-[(3-chloro-5-cyanophenyl)oxy]-2-fluorophenyl}methyl)-5-(methyloxy)-1H-indole-2-carboxamide], the IC50 under setting [1] lay within 10 to 1000 nM.

Consider `N#Cc1cc(Cl)cc(Oc2c(Cl)ccc(CNC(=O)c3cc4cc(Cl)ccc4[nH]3)c2F)c1` [Example 109, 5-chloro-N-({4-chloro-3-[(3-chloro-5-cyanophenyl)oxy]-2-fluorophenyl}methyl)-1H-indole-2-carboxamide], for which the IC50 under setting [1] fell in the range of 10 to 1000 nM.

As for `Cc1nn(-c2ccccc2)nc1C(=O)NCc1ccc(Cl)c(Oc2cc(Cl)cc(C#N)c2)c1F` [Example 96, N-({4-chloro-3-[(3-chloro-5-cyanophenyl)oxy]-2-fluorophenyl}methyl)-5-methyl-2-phenyl-2H-1,2,3-triazole-4-carboxamide trifluoroacetate], the IC50 under setting [1] fell in the range of 10 to 1000 nM.

Take `CCc1nc(Cl)c(C(=O)NCc2ccc(Cl)c(Oc3cc(Cl)cc(C#N)c3)c2F)[nH]1` [Example 77, 4-chloro-N-({4-chloro-3-[(3-chloro-5-cyanophenyl)oxy]-2-fluorophenyl}methyl)-2-ethyl-1H-imidazole-5-carboxamide trifluoroacetate]: the IC50 under setting [1] was < 10 nM.

In the case of `CCCc1nc(Cl)c(C(=O)NCc2ccc(Cl)c(Oc3cc(Cl)cc(C#N)c3)c2F)[nH]1` [Example 139, 4-chloro-N-({4-chloro-3-[(3-chloro-5-cyanophenyl)oxy]-2-fluorophenyl}methyl)-2-propyl-1H-imidazole-5-carboxamide], the IC50 under setting [1] was < 10 nM.

Consider `N#Cc1cc(CC2CC2)cc(Oc2c(Cl)ccc(CNC(=O)c3[nH]cnc3Cl)c2F)c1` [Example 157, 4-chloro-N-[(4-chloro-3-{[3-cyano-5-(cyclopropylmethyl)phenyl]oxy}-2-fluorophenyl)methyl]-1H-imidazole-5-carboxamide], for which the IC50 under setting [2] is < 10 nM.

For the molecule `N#Cc1cc(Cl)cc(Oc2c(Cl)ccc(CNC(=O)c3nc4ccccc4[nH]3)c2F)c1` [Example 35, N-({4-chloro-3-[(3-chloro-5-cyanophenyl)oxy]-2-fluorophenyl}methyl)-1H-benzimidazole-2-carboxamide], the IC50 under setting [1] is < 10 nM.

As for `N#Cc1cc(Cl)cc(Oc2c(Cl)ccc(CNC(=O)c3cc4cc(Cl)ccc4s3)c2F)c1` [Example 51, 5-chloro-N-({4-chloro-3-[(3-chloro-5-cyanophenyl)oxy]-2-fluorophenyl}methyl)-1-benzothiophene-2-carboxamide trifluoroacetate], the IC50 under setting [1] was > 1000 nM.

In the case of `N#Cc1cc(Cl)cc(Oc2c(Cl)ccc(CNC(=O)c3cc4cc(F)ccc4[nH]3)c2F)c1` [Example 41, N-({4-chloro-3-[(3-chloro-5-cyanophenyl)oxy]-2-fluorophenyl}methyl)-5-fluoro-1H-indole-2-carboxamide], the IC50 under setting [1] was in the range of 10 to 1000 nM.

Turning to `N#Cc1cc(Cl)cc(Oc2c(Cl)ccc(CNC(=O)c3cc4cc(NC(=O)CCN)ccc4[nH]3)c2F)c1` [Example 116, 5-(β-alanylamino)-N-({4-chloro-3-[(3-chloro-5-cyanophenyl)oxy]-2-fluorophenyl}methyl)-1H-indole-2-carboxamide], the IC50 under setting [1] was < 10 nM.

On to `CSc1nc(C(=O)NCc2ccc(Cl)c(Oc3cc(Cl)cc(C#N)c3)c2F)cn1C(c1ccccc1)(c1ccccc1)c1ccccc1` [Example 65, N-({4-chloro-3-[(3-chloro-5-cyanophenyl)oxy]-2-fluorophenyl}methyl)-2-(methylthio)-1-(triphenylmethyl)-1H-imidazole-4-carboxamide trifluoroacetate], for which the IC50 under setting [1] lay in the range of 10 to 1000 nM.

In the case of `CN(Cc1ccc(Cl)c(Oc2cc(Cl)cc(C#N)c2)c1F)C(=O)c1ccc[nH]1` [Example 129, N-({4-chloro-3-[(3-chloro-5-cyanophenyl)oxy]-2-fluorophenyl}methyl)-N-methyl-1H-pyrrole-2-carboxamide], under setting [1], the IC50 was < 10 nM.

`Cn1cnc(C(=O)NCc2ccc(Cl)c(Oc3cc(Cl)cc(C#N)c3)c2F)c1` [Example 64, N-({4-chloro-3-[(3-chloro-5-cyanophenyl)oxy]-2-fluorophenyl}methyl)-1-methyl-1H-imidazole-4-carboxamide trifluoroacetate]: under setting [1], the IC50 fell in the range of 10 to 1000 nM.
